Experiment [1] addresses T1, Peroxisome proliferator-activated receptor alpha (Homo sapiens, UniProt Q07869).
T1 sequence (Q07869 whole entry): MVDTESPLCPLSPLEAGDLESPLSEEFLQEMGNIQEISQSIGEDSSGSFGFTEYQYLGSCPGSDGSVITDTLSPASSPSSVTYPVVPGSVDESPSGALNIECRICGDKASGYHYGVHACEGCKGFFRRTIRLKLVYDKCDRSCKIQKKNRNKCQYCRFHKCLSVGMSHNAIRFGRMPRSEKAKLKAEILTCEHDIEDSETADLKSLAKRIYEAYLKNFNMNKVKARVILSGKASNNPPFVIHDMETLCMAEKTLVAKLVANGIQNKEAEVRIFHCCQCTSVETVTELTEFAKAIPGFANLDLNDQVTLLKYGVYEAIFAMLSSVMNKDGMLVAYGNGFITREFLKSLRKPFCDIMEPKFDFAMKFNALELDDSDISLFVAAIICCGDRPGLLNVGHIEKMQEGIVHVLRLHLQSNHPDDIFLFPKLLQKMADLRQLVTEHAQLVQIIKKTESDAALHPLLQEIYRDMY
Nature of the experiment: Agonist activity at human PPARalpha transactivation expressed in human HePG2 cells. The experiment is classed as functional, cell-based.

The target in experiment [2] is T2, Peroxisome proliferator-activated receptor gamma (Homo sapiens, UniProt P37231).
T2 sequence (P37231 whole entry): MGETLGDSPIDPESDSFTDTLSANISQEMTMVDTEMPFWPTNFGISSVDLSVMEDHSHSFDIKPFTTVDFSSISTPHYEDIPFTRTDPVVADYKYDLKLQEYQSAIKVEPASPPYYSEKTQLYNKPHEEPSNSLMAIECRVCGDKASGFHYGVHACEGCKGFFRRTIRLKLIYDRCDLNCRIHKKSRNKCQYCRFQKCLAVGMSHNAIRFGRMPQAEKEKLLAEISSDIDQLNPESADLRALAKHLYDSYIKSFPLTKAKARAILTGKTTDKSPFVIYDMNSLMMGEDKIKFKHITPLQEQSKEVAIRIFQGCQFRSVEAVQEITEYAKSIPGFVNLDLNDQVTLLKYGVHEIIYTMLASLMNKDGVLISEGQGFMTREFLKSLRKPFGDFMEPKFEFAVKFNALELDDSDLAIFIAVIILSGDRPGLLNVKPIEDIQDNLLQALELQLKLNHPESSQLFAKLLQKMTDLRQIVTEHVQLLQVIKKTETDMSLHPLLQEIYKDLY
The experiment in a line: Agonist activity at human PPARgamma transactivation expressed in human HePG2 cells.

Experiment [3] deals with T3, Peroxisome proliferator-activated receptor delta (Homo sapiens) (UniProt Q03181).
T3 sequence (whole entry): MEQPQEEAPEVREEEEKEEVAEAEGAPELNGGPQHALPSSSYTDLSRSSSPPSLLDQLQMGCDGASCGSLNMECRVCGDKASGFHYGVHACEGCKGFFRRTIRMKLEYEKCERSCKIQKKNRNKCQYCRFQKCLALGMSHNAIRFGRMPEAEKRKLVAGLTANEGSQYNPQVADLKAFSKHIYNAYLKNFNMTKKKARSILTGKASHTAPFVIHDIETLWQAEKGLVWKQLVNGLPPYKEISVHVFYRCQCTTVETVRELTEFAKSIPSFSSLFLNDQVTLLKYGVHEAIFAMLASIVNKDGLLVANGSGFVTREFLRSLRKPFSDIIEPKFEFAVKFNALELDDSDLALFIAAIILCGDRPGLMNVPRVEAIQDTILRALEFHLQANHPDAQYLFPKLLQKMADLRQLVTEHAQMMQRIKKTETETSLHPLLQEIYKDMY
The experiment in a line: Agonist activity at human PPARdelta transactivation expressed in human HePG2 cells up to 1 uM. The experiment is classed as functional, cell-based.

Experiment [4] deals with HpG2. The experiment in a line: Selectivity ratio of EC50 for human PPARgamma receptor to human PPARalpha receptor expressed in human HpG2 cells. The experiment is classed as cell-based.
For experiment [5], the target named is T4, Peroxisome proliferator-activated receptor alpha (Homo sapiens) (UniProt Q07869).
T4 sequence (whole entry): T1 sequence (Q07869 whole entry)
Nature of the experiment: Agonist activity at human PPARalpha transactivation expressed in human HePG2 cells up to1 uM. The experiment is classed as functional, cell-based.

Experiment [6] deals with T5, Peroxisome proliferator-activated receptor gamma (Homo sapiens) (UniProt P37231).
T5 sequence (whole entry): T2 sequence (P37231 whole entry)
The experiment in a line: Agonist activity at human PPARgamma transactivation expressed in human HePG2 cells up to1 uM. The experiment is classed as functional, cell-based.

Calls of active or inactive are those of the source. No cut-off for these calls is given here.

For the compound `Cc1ccc(-c2nc(CCCCCCO/N=C(/CCC(=O)O)c3ccccc3)c(C)o2)cc1`, the EC50 in experiment [1] was determined as 0.1 nM; in experiment [2], 100 nM. Moreover, the outcome in experiment [3] was inactive. The Ratio EC50 in experiment [4] is 1000.
Regarding `COc1ccc(OC(=O)N(CC(=O)O)Cc2ccc(OCCc3nc(-c4ccccc4)oc3C)cc2)cc1` [MURAGLITAZAR], the EC50 in experiment [1] was determined as 150 nM. In addition, in experiment [3], the outcome was inactive.
Regarding `Cc1ccc(-c2nc(CCCC[C@H]3CO[C@@](C)(C(=O)O)OC3)c(C)o2)cc1`, a half-maximal response in experiment [2] (EC50) required 6850 nM. Moreover, the result in experiment [3] was inactive.
`COc1ccc(OC(=O)N(CCCCCc2coc(-c3ccc(C)cc3)n2)CC(=O)O)cc1`: the figures for the EC50 in experiment [1] and in experiment [2] were 44 nM and 560 nM, respectively. In experiment [3], the outcome was inactive. The Ratio EC50 in experiment [4] worked out at 12.
With `Cc1ccc(-c2nc(COc3ccc(C[C@H]4CO[C@@](C)(C(=O)O)OC4)cc3)c(C)o2)cc1`, the EC50 in experiment [1] turned out to be 72 nM. The outcome in experiment [3] was inactive. In experiment [4], the Ratio EC50 amounted to 0.2.
In experiment [1], `Cc1oc(-c2ccccc2)nc1COc1ccc(CO/N=C(\CCC(=O)O)c2ccccc2)cc1` [IMIGLITAZAR] came in with an EC50 of 8 nM. In addition, the outcome in experiment [3] was inactive.
As for `Cc1ccc(-c2nc(CCCCO/N=C(\CCC(=O)O)c3ccccc3)c(C)o2)cc1`, the EC50 in experiment [1] came out at 0.0038 nM; in experiment [2], 430 nM. Also, in experiment [3], the result was inactive. The Ratio EC50 in experiment [4] was 113000.
Taken in the same sequence, the figures for `COc1ccc(OC(=O)N(CCCCCCc2nc(-c3ccc(C)cc3)oc2C)CC(=O)O)cc1` were 34 nM, 450 nM, “inactive” and 13.
For `COc1ccc(OC(=O)N(CCCCc2nc(-c3ccc(C)cc3)oc2C)CC(=O)O)cc1`, the outcome in experiment [3], in experiment [5] and in experiment [6] was inactive.
For `Cc1ccc(-c2nc(CCCCCO/N=C(/CCC(=O)O)c3ccccc3)c(C)o2)cc1`, the EC50 worked out at 2 nM in experiment [1] and 31 nM in experiment [2]. Moreover, the result in experiment [3] was inactive. In addition, in experiment [4], the Ratio EC50 was 15.

For orientation: EC50 means the concentration needed to bring the measured effect to its halfway point. A higher EC50 goes with weaker potency.
